# Tests used:
# Assay type in all cases: in vivo
# [1] = system: powdery mildew of wheat (Erysiphe graminis forma specialis tritici); experiment: Activity against powdery mildew of wheat (protective spray, potted wheat seedlings); details: 1 ppm active ingredient; wheat seedlings c.v. Frühgold; dusted with spores 24 hours after spraying; scored visually after 7 days; untreated plants infected to 90%
# Method: (§1) The active ingredients were formulated as a 10% strength emulsion in a mixture of 63% by weight of cyclohexanone and 27% by weight of emulsifier and diluted to the desired concentration with water.
# Leaves of potted wheat seedlings c.v. “Frühgold” were sprayed to run off point with an aqueous preparation of active ingredient which had been prepared using a stock solution of 10% of active ingredient, 63% of cyclohexanone and 27% of emulsifier and, 24 hours after the spray coating had dried on, dusted with spores of powdery mildew of wheat (Erysiphe graminis forma specialis tritici). The test plants were subsequently placed in a greenhouse at 20-24° C. and 60-90% relative atmospheric humidity. After 7 days, the extent of the mildew development was scored visually in % infection of the total leaf area.
# [2] = system: Puccinia recondita; experiment: Curative activity against Puccinia recondita on wheat (leaf rust of wheat); details: 16 ppm active ingredient; wheat seedlings c.v. Kanzler; sprayed the day after infection (curative); 7 days in greenhouse; untreated plants infected to 95%
# Method: as §1
# Leaves of potted wheat seedlings c.v. “Kanzler” were dusted with leaf rust spores (Puccinia recondita). The pots were then placed for 24 hours in a chamber with high atmospheric humidity (90 to 95%) at 20 to 22° C. During this time, the spores germinated, and the germinal tubes penetrated the leaf tissue. The next day, the infected plants were sprayed to run off point with an aqueous preparation of active ingredient which had been prepared using a stock solution of 10% of active ingredient, 63% of cyclohexanone and 27% of emulsifier. After the spray coating had dried on, the test plants were cultivated for 7 days in a greenhouse at 20-22° C. and a relative atmospheric humidity of 65-70%. The extent of rust development on the leaves was then determined.
# [3] = system: Pyricularia oryzae; details: 63 ppm active ingredient; rice seedlings c.v. Tai-Nong 67; inoculated the day after spraying (protective); 6 days; determined visually; untreated plants infected to 85%
smiles,measurement,setting,value
"CNC(=O)/C(=N/OC)c1ccccc1COc1ccc(OC(C)/C(C)=N/OC)cc1C (stereo not shown) [I-1, 2-Methoxyimino-2-{2-[4-(2-methoxyimino-1-methyl-propoxy)-2-methylphenoxymethyl]phenyl}-N-methyl-acetamide]","extent of the mildew development, % infection of the total leaf area",[1],no infection
CNC(=O)/C(=N/OC)c1ccccc1COc1ccccc1C [compound A],"extent of the mildew development, % infection of the total leaf area",[1],60%
same,extent of rust development on the leaves (infection),[2],60%
same,extent of the development of the infection on the leaves,[3],25%
CNC(=O)/C(=N/OC)c1ccccc1COc1ccc(/C(C)=N/OC)cc1C [compound B],"extent of the mildew development, % infection of the total leaf area",[1],25%
same,extent of rust development on the leaves (infection),[2],25%
same,extent of the development of the infection on the leaves,[3],40%

# From US6482984B2 (priority 2000, dated 2002)
